Data: the supplement of paper PMC10307832

How the values were obtained:
Test in all cases: relative viability (nuclei count vs DMSO), 5 days (fraction); higher = more cells survive
BAM7 + Navitoclax = compound: CCOC1=CC=CC=C1N=NC2=C(NN(C2=O)C3=NC(=CS3)C4=CC=CC=C4)C [BAM7] + CC1(C)CCC(c2ccc(Cl)cc2)=C(CN2CCN(c3ccc(C(=O)NS(=O)(=O)c4ccc(N[C@H](CCN5CCOCC5)CSc5ccccc5)c(S(=O)(=O)C(F)(F)F)c4)cc3)CC2)C1 [Navitoclax] (partner 0.5 µM)
Method in brief: (§1)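 Lung cancer cell lines in 1536-well plates got either a single drug or a fixed anchor-drug dose together with five library-drug doses (not always all listed) in √10 steps, by pin tool, on the day after seeding. Nuclei were counted after 5 days, and relative viability is the treated-to-vehicle ratio of nuclei counts. Values are medians of duplicate plates.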

[1] = compound: CCn1c(-c2nonc2N)nc2c(C#CC(C)(C)O)ncc(OC[C@H]3CCCNC3)c21 + C[C@]1(O)C[C@@H](c2nc(-c3ccc4ccc(-c5ccccc5)nc4c3)c3c(N)nccn32)C1 [Linsitinib] (partner 1 µM)
Method in brief: as §1

[2] = compound: CCn1c(-c2nonc2N)nc2c(C#CC(C)(C)O)ncc(OC[C@H]3CCCNC3)c21 + C[C@@H](Oc1cc(-c2cnn(C3CCNCC3)c2)cnc1N)c1c(Cl)ccc(F)c1Cl [Crizotinib] (partner 1 µM)
Method in brief: as §1

BAM7 + Palbociclib = compound: CCOC1=CC=CC=C1N=NC2=C(NN(C2=O)C3=NC(=CS3)C4=CC=CC=C4)C [BAM7] + CC(=O)c1c(C)c2cnc(Nc3ccc(N4CCNCC4)cn3)nc2n(C2CCCC2)c1=O [Palbociclib] (partner 0.5 µM)
Method in brief: as §1

Cell Line | relative viability (BAM7 + Navitoclax; first compound 0.5 µM) | relative viability (BAM7 + Navitoclax; first compound 5 µM) | relative viability (BAM7 + Navitoclax; first compound 15.81 µM) | relative viability (BAM7 + Navitoclax; first compound 50 µM) | relative viability ([1]; first compound 0.01 µM) | relative viability ([1]; first compound 0.03162 µM) | relative viability ([1]; first compound 0.1 µM) | relative viability ([1]; first compound 0.3162 µM) | relative viability ([1]; first compound 1 µM) | relative viability ([2]; first compound 0.01 µM) | relative viability ([2]; first compound 0.03162 µM) | relative viability ([2]; first compound 0.1 µM) | relative viability ([2]; first compound 0.3162 µM) | relative viability ([2]; first compound 1 µM) | relative viability (BAM7 + Palbociclib; first compound 0.5 µM) | relative viability (BAM7 + Palbociclib; first compound 5 µM) | relative viability (BAM7 + Palbociclib; first compound 15.81 µM) | relative viability (BAM7 + Palbociclib; first compound 50 µM)
201T | 1.18 | 1.27 | 1.12 | 1.03 | 1.05 | 1.1 | 0.986 | 1.03 | 1.02 | 1.01 | 1.03 | 1.04 | 1 | 1.03 | 0.358 | 0.336 | 0.307 | 0.335
A549 | 1.34 | 1.27 | 1.16 | 1.27 | 0.681 | 0.624 | 0.444 | 0.505 | 0.647 | 0.665 | 0.706 | 0.718 | 0.666 | 0.63 |  |  |  | 
A-427 | 0.991 | 0.921 | 0.974 | 0.971 | 1.13 | 1.05 | 1.15 | 1.1 | 1.13 | 0.925 | 0.966 | 0.978 | 0.828 | 0.846 | 0.507 | 0.49 | 0.498 | 0.532
ABC-1 |  |  |  |  | 0.818 | 0.73 | 0.847 | 0.685 | 0.526 | 1.37 | 1.27 | 0.867 | 1.11 | 0.608 | 0.548 | 0.667 | 0.774 | 0.584
BEN | 0.0506 | 0.068 | 0.0675 | 0.068 | 0.9 | 1.08 | 0.772 | 0.767 | 0.967 | 0.962 | 1.11 | 0.758 | 0.714 | 0.885 | 0.491 | 0.493 | 0.546 | 0.492
CAL-12T | 1.1 | 1.2 | 1.14 | 1.26 | 0.878 | 0.784 | 0.819 | 0.802 | 0.715 | 0.8 | 0.653 | 0.546 | 0.738 | 0.84 | 0.593 | 0.372 | 0.419 | 0.513
COR-L23 | 1.03 | 1.15 | 0.986 | 0.955 | 0.891 | 0.946 | 0.884 | 0.805 | 0.829 | 0.612 | 0.724 | 0.56 | 0.662 | 0.604 | 0.284 | 0.315 | 0.294 | 0.275
COR-L 105 | 0.825 | 0.664 | 0.784 | 0.826 | 1.1 | 0.848 | 1.29 | 0.747 | 0.81 | 0.692 | 1.05 | 0.731 | 0.731 | 0.875 | 0.407 | 0.387 | 0.373 | 0.41
Calu-6 | 0.911 | 0.919 | 0.906 | 0.824 | 0.88 | 1.06 | 0.842 | 0.952 | 0.935 | 0.758 | 0.814 | 0.868 | 0.756 | 0.786 |  |  |  | 
ChaGo-K-1 | 0.882 | 1.18 | 1.11 | 1.08 |  |  |  |  |  | 1.05 | 1.14 | 1.13 | 1.05 | 1.19 | 1.02 | 0.965 | 0.819 | 0.902
